Target: T1, interaction of Gal3 and Abeta (1-42) oligomer (Homo sapiens, UniProt P17931)
T1 construct: His
Assay: Gal3-Abeta (1-42) oligomer blocking ELISA
Type: binding
Conditions: at 10,000 nM
Experimental: To identify Gal3-targeted antibodies with the ability to block the interaction of Gal3 and Abeta, purified Gal3 and Abeta (1-42) peptide and oligomer were incubated in the presence (or absence) of various Gal3-targeted or control antibodies, or without antibody, and protein interaction was evaluated by ELISA.
The plate was incubated for an hour at room temperature with gentle rocking. Thereafter, the plate was washed three times with PBST. […] The plate was incubated at room temperature for an hour with gentle rocking and then washed three times with PBST. […] Percent blockade of Gal3-Abeta (1-42) peptide or oligomer interaction was calculated as the fraction of signal obtained in the absence of antibody with the background signal subtracted.
The plate was incubated for an hour at room temperature with gentle rocking. Thereafter, the plate was washed three times with PBST. […] The plate was incubated at room temperature for an hour with gentle rocking and then washed three times with PBST. […] Percent blockade of Gal3-Abeta (1-42) oligomer interaction was calculated as the fraction of signal obtained in the absence of antibody or inhibitor with the background signal subtracted.

T1 sequence (P17931 2-250 limits assumed): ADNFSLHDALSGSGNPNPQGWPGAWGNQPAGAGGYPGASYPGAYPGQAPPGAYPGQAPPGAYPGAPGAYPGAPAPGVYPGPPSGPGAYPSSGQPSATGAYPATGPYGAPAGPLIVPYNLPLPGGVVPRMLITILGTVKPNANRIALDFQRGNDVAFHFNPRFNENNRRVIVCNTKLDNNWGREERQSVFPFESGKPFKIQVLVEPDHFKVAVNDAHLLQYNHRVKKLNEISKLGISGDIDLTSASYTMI

OC[C@H]1O[C@@H](S[C@@H]2O[C@H](CO)[C@H](O)[C@H](n3cc(-c4cccc(F)c4)nn3)[C@H]2O)[C@H](O)[C@@H](n2cc(-c3cccc(F)c3)nn2)[C@H]1O [TD139]
Percent blockade of Gal3-Abeta (1-42) oligomer interaction: at most 19%

From patent US20250145722A1, “ANTI-GAL3 ANTIBODIES AND METHODS OF USE” (TrueBinding, Inc., priority 2020, published 2025)
